Entries after “also recorded” stand apart in the source; their conditions may differ. Where two headings read alike, the source gives them in different places.
Columns and labels:
[1] = molecular target: HBc protein (Hepatitis B virus genotype D subtype ayw, UniProt P03146, A80I/T33N/V74G); assay: Anti-HBc immunostaining and confocal microscopy of HBc-producing BHK-21 cells; format: cell-based; settings: 20 μM and 50 μM, 24 h
[2] = molecular target: HBV capsid assembly (full-length HBc protein, genotype D1) (Hepatitis B virus genotype D subtype ayw, UniProt P03146, A80I/T33N/V74G); assay: HBV capsid assembly in SFV1/HBc-infected HBc-producing BHK-21 cells, native agarose gel anti-HBc immunoblot; format: cell-based; settings: HBc-producing BHK-21 cells; for Type of effect on HBV capsid assembly in dose-dependent experiments: 0.1–50 µM, 24 h (Figure 6); for Effect on capsid production / mobility in initial test: 1–50 μM, 24 h (Figure 5); for Effect on Capsid Assembly / Effect on Capsid Assembly, Starting Concentration: 24 h, native agarose immunoblot
Chain of HBV capsid assembly (full-length HBc protein, genotype D1) (P03146 whole entry A80I/T33N/V74G, looked up): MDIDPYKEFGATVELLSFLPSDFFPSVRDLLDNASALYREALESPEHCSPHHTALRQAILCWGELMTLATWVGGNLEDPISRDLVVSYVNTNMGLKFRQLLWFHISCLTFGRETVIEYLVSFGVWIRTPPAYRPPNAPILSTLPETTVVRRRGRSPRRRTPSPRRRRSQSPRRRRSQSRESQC

[3] = system: HBV; settings: HepG2.2.15 cells; for HBV DNA, % from control: six days, secreted virion DNA; for Decrease in the amount of HBV virion release compared with control: Figure 8
[4] = system: BHK-21 cells; assay: MTT viability assay in BHK-21 cells; format: cell-based, hamster; settings: 6.125–200 µM, 24 h
Method: (§1) BHK-21 cells were incubated with different concentrations (6.125, 12.25, 25, 50, 100, and 200 µM) of the respective compounds and the cell viability was calculated as a percentage from untreated cells (100%) (Figure 7). In general, the results confirmed the morphological observation of relatively low cytotoxicity for tested compounds at concentrations below 100 µM.
(§2) Additionally, cell viability was determined by tetrazolium salt-based assay using the Vybrant MTT Cell Proliferation kit (Thermo Fisher Scientific, Waltham, MA, USA) or more sensitive CCK-8 kit (Abcam). First, the cell numbers and protocol were optimized for BHK-21 and HepG2.2.15 cells, as indicated in the MTT assay kit or CCK-8 reagent manufacturer’s protocol, and standard curves with OD values were created and evaluated.
(§3) In order to evaluate the toxicity of selected HAP compounds in the medium, 1.3 × 10^4 BHK-21 were seeded per well in 96-well plates and treated with the studied compounds for 24 h at concentrations 6.125; 12.25; 25; 50; 100; and 200 μM. Control cells without HAP compounds and MTT-free cell media were included in the experiments. The MTT test was performed according to the full protocol version (Thermo Fisher Scientific).

[5] = system: HepG2.2.15 cells; assay: MTT viability test in HepG2.2.15 cells (TC50); format: cell-based, human; settings: 48 h, 0–200 µM
Method: In order to compare the cytotoxicity of compounds 1d and 1e in HBV producing HepG2.2.15 cells, the toxic concentrations (TC50 values) were estimated (Figure 9B,C).
In order to calculate the median of the toxic concentration (TC50) of the compounds, 1.33 × 10^5 HepG2.2.15 cells per well were seeded into a 24-well plate. After 24 h, the cells were treated with the test compounds at different concentrations (0, 50, 100, 150, 200 μM) and incubated for 48 h at 37 °C. All experiments were carried out in three identical repeats and the coefficient of variation and standard deviation were calculated from at least two independent experiments.
The percent inhibition at each compound concentration was calculated by normalization of the signals to the signals from non-treated HepG2.2.15 cells. […] Data points and error bars represent the means and standard deviations from at least two independent experiments, respectively. Comparisons between data groups were performed using the unpaired t test, with p values < 0.05 being considered statistically significant.

[6] = molecular target: HBV capsids (HBc assembly products) (Hepatitis B virus genotype D subtype ayw, UniProt P03146, A80I/T33N/V74G); assay: Electron microscopy of HBc assembly products purified from treated BHK-21 cells; format: cell-based; settings: 50 μM, 24 h, sucrose cushion pellet
Chain of HBV capsids (HBc assembly products) (P03146 whole entry A80I/T33N/V74G, looked up): as above

[7] = system: HBV; assay: microbe, parasite or virus in culture; settings: Hepatitis B virus, HepG2.2.15, 144 h, read-out: EC50 (50% reduction of HBV DNA), HepG2.2.15 cells, six days, 0–20 µM
[8] = MTT viability assay in BHK-21 cells; format: cell-based, hamster; settings: hamster, 200 µM, read-out: Cell viability, percentage from untreated cells
Method: as §1, §2, §3

[9] = system: BHK-21 cells; assay: Cytopathic effect (cell morphology, proliferation, trypan blue) in non-infected BHK-21 cells; format: cell-based, hamster; settings: 24 h; for The Highest Non-Toxic Concentration: non-infected BHK-21 cells, no noticeable cytopathic effect
Method: To define HAP compound non-toxic concentrations for initial studies, non-infected BHK-21 cells were incubated with compounds at four different concentrations for 24 h (25 μM, 50 μM, 100 μM, and 200 μM), and the cytopathic effects were evaluated by analysis of cell morphology and proliferation changes. […] 1c, 1j, 1k and 4a, and 7b. The reference comp.
The cytopathic effect of the compounds was estimated by phase contrast microscopy and standard trypan blue staining, and the cells were counted using an automatic cell counter (Invitrogen). BHK-21 and HepG2.2.15 cells were incubated for 24 h with the studied compounds at […] (25, 50, 100, 150 and 200 μM) and the cell morphology was controlled under microscope to evaluate cytopathic effects (Table 1, the highest non-toxic concentration).

[10] = system: primary hepatocytes; set-up: method as in PMID 25921762; settings: cited from earlier work

Chain of HBc protein (P03146 whole entry A80I/T33N/V74G, looked up): as above

| SMILES | Intracellular localization of HBc [1] | Type of effect on HBV capsid assembly in dose-dependent experiments [2] | Effect on capsid production / mobility in initial test [2] | Effect on Capsid Assembly [2] | Effect on Capsid Assembly, Starting Concentration [2] [µM] | SI (TC50/EC50) [3] | HBV DNA, % from control ([3]; 20 µM) [%] | Decrease in the amount of HBV virion release compared with control [3] [%] | Cell viability compared to untreated control [4] | TC50 [5] [µM] | Morphology of HBc assembly products by electron microscopy [6] | EC50 [7] [µM] | Effect on capsids at lower concentrations ([2]; 5 μM and 10 μM) | Effect on capsids at higher concentrations ([2]; 20 μM and 50 μM) | viability at 24 h, 200 µM [8] [%] | The Highest Non-Toxic Concentration [9] [µM] | Toxic concentration [10] [µM] | HBV DNA, % from control ([3]; 10 µM) [%] | Concentration revealing cell toxicity signs ([9]; BHK-21 cells) [µM] |
| --- | --- | --- | --- | --- | --- | --- | --- | --- | --- | --- | --- | --- | --- | --- | --- | --- | --- | --- | --- |
| CCOCCOC(=O)C1=C(C)NC(c2ncc(F)cc2F)=NC1c1ccc(F)cc1Cl (stereo not drawn) [1d] | speckled dot pattern of HBc distribution in the cytoplasm; also recorded: blocked the intranuclear transport of HBc protein | dose-dependent HBc products accumulation | misfolding of the HBV capsid | HBc accumulation, aggregates/or incorrect capsid structures | 5 | 28 | 6.5 | ≤ 93.5 | did not demonstrate the difference in cell viability | 175 | irregularly shaped structures that resembled capsids of the wrong size and incorrect symmetry, as well as the capsid aggregates | 6.24 |  |  |  |  |  |  |  |
| CC1=C(C(=O)OCCOC(C)C)C(c2ccc(F)cc2Cl)N=C(c2ncc(F)cc2F)N1 (stereo not drawn) [1e] |  | dose-dependent HBc signal decrease | misfolding of the HBV capsid | Dose dependent capsid signal decrease | 10 | 11 | 6.3 | ≤ 93.5 |  | 98 |  | 9.16 | capsid stabilization and accumulation | capsids were almost non-detectable | > 90 | 100 |  |  |  |
| COC(=O)C1=C(C)NC(c2ncc(F)cc2F)=NC1c1ccc(F)cc1Cl (stereo not drawn) [1a, Bay 41-4109, reference compound] |  | dose-dependent HBc signal decrease |  | Dose dependent capsid signal decrease | 1 |  |  |  |  |  |  | 0.35 |  |  |  | 100 | 5.06 | 2.5 | 100 |
